Experimental data as given in PubChem BioAssay (NCI).
Values joined by “and” are separate entries in the source; they are usually repeats but may differ in a detail not shown here. Identical values can stand only once.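 A five-concentration, 48-hour dose response in 96-well plates underlies each endpoint, interpolated linearly between surrounding concentrations. Abbreviation: GI50, concentration required for 50% inhibition of growth. Definition used: TGI = concentration required for complete inhibition of growth.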

How the values were obtained:
Test in all cases: DTP human tumour cell line panel, 48 h
NCI-H226 lung = tested on: NCI-H226 lung
SN12C renal = tested on: SN12C renal
SF-539 CNS = tested on: SF-539 CNS
HS 578T breast = tested on: HS 578T breast
DU-145 prostate = tested on: DU-145 prostate
HCT-116 colon = tested on: HCT-116 colon
LOX IMVI melanoma = tested on: LOX IMVI melanoma
SR leukemia = tested on: SR leukemia
RXF 393 renal = tested on: RXF 393 renal
HT29 colon = tested on: HT29 colon

Row | SMILES | GI50 (NCI-H226 lung) | TGI (NCI-H226 lung) | GI50 (SN12C renal) | TGI (SN12C renal) | GI50 (SF-539 CNS) | TGI (SF-539 CNS) | GI50 (HS 578T breast) | TGI (HS 578T breast) | GI50 (DU-145 prostate) | TGI (DU-145 prostate) | GI50 (HCT-116 colon) | TGI (HCT-116 colon) | GI50 (LOX IMVI melanoma) | TGI (LOX IMVI melanoma) | GI50 (SR leukemia) | TGI (SR leukemia) | GI50 (RXF 393 renal) | TGI (RXF 393 renal) | GI50 (HT29 colon) | TGI (HT29 colon)
1 | COC(=O)c1c2c(c[n+]([O-])c1C)C(=O)C(NCc1ccccc1)=CC2=O | 1.23 µM | 2.84 µM | 0.318 µM | 1.22 µM | 0.457 µM | 1.67 µM | 2.4 µM | 8.13 µM | 1.05 µM | 2.25 µM | 0.269 µM | 0.924 µM | 0.279 µM | 1.32 µM | 1.29 µM | > 100 µM | 1.05 µM | 2.48 µM | 0.43 µM | > 20.3 µM
2 | CCc1ccc(/C(C#N)=C/C=C/c2ccccc2)cc1 | 17.2 µM | > 100 µM | 10.6 µM | > 100 µM | 1.52 µM | 4.69 µM | 5.25 µM | > 100 µM | 4.22 µM | > 48.4 µM | 1.93 µM | > 100 µM | 10.5 µM | > 100 µM | 0.644 µM | > 61.4 µM | 1.29 µM | 4.09 µM | 1.38 µM | 9.41 µM
3 | COc1ccc(C2=C(Br)C(=O)OC2)cc1Cl | 25 µM | 62.7 µM | 22.1 µM | 52.3 µM | 15.2 µM | 39.8 µM | 41.2 µM | > 88.5 µM | 20.8 µM | 88.9 µM | 20.4 µM | 49.5 µM | 18.9 µM | 46.5 µM | 22.1 µM | > 100 µM | 26.8 µM | > 72.4 µM | 48.4 µM | > 100 µM
4 | COc1cc2c3c(n(CCCN=[N+]=[N-])c(=O)c2cc1OC)-c1ccc(N)cc1C3=O | 0.249 µM | 1.16 µM | 0.282 µM | > 27.1 µM | 0.0919 µM | 0.325 µM | 1.53 µM | > 24.9 µM | 0.117 µM | 1.42 µM | 0.097 µM | 0.521 µM | 0.0923 µM | 0.466 µM | 0.0276 µM | 0.498 µM | 0.189 µM | 0.468 µM | 0.133 µM | 0.929 µM
5 | CCCCC(SC(=S)N(CC)CC)C(=O)Nc1nc(CC(=O)OCC)cs1 (centres undefined) | 58 µM | > 100 µM | 77.8 µM | > 100 µM | 34.6 µM | > 100 µM | 47.9 µM | > 100 µM | 98.3 µM | > 100 µM | 29.8 µM | > 100 µM | 29.6 µM | > 100 µM | 29.4 µM | > 100 µM | 32.5 µM | > 100 µM | 32.7 µM | > 100 µM
6 | CCN1CCN(CCNc2nccc(-c3c(-c4cccc(O)c4)nc4sccn34)n2)S1(=O)=O | > 32.5 µM and 26.4 µM | > 32.5 µM and 84.3 µM | 15.2 µM and 7.73 µM | 32.5 µM and > 100 µM | 28.6 µM and 21.3 µM | 32.5 µM and 78.5 µM | 12.9 µM and 10 µM | 30.2 µM and > 100 µM | 16.1 µM and 8.51 µM | 32.5 µM and > 100 µM | 9.72 µM and 3.63 µM | 32.5 µM and 55.3 µM | 4.96 µM and 2.53 µM | 25.7 µM and 23.5 µM | 7.65 µM and 5.96 µM | 32.5 µM and 64.3 µM | 4.02 µM and 5.06 µM | 22.7 µM and 36.3 µM | 4.53 µM and 2.2 µM | 32.5 µM and 31.7 µM
7 | Clc1ccc(N/N=C/c2ccccn2)nc1 | 0.401 µM | > 100 µM | 0.469 µM | > 100 µM | 0.329 µM | 2.46 µM | 3.39 µM | > 100 µM | 0.445 µM | > 100 µM | 0.305 µM | > 100 µM | 0.326 µM | 18.6 µM | 0.339 µM | > 52.8 µM | 0.492 µM | 15.7 µM | 0.574 µM | > 100 µM
8 | COc1cccc(C2=NN(C(C)=O)C(c3cc(OC)c(OC)c(OC)c3)C2)c1 (centres undefined) | > 100 µM | > 100 µM | 5.69 µM | > 100 µM | 2.81 µM | > 25.7 µM | 1.36 µM | 5.11 µM | 2.87 µM | > 100 µM | 2.59 µM | > 100 µM | 7.22 µM | > 100 µM | 0.437 µM | > 100 µM | 4.02 µM | > 100 µM | 3.1 µM | > 100 µM
9 | CC(C)[C@@H]1NC(=O)[C@]2(C)CSC(=N2)c2csc(n2)CNC(=O)C[C@@H](/C=C/CCS)OC1=O | 0.403 µM | 7.69 µM | 0.403 µM | > 100 µM | 0.0543 µM | > 100 µM | 0.0471 µM | – | 0.147 µM | > 100 µM | 0.123 µM | 1.08 µM | 0.131 µM | 0.355 µM | 0.0563 µM | > 100 µM | 0.0521 µM | 0.33 µM | 0.183 µM | > 100 µM
10 | Oc1ccc(Cl)cc1Cc1cc(Cl)cc(Cc2cc(Cl)ccc2O)c1O | – | 7.07 µM | – | 8.21 µM | – | 4.37 µM | – | 7.71 µM | – | 13 µM | – | 9.33 µM | – | 9.82 µM | – | 11.6 µM | – | 8.86 µM | – | 10.4 µM
